Measurements as given in patent US11034692B1 (Genentech, Inc., priority 2017, dated 2021).

The compounds below were run against HPK1 (Homo sapiens, UniProt Q92918) (assay: HPK1 Lantha Binding Assay ("Lanth")). Details: Table B1-1, read-out: HPK1 Ki (μM) (Lanth).
Outline: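 Compounds in an 11-point 5-fold series were preincubated 1 h at 23 C with 2 nM kinase plus 2 nM Eu-anti-GST antibody. Then 15 nM Tracer222 was added for another hour, and time-resolved FRET was read at 665/615 nm. Ki values come from a Morrison tight-binding model that uses the tracer Kd.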

Chain of HPK1 (Q92918 whole entry, looked up): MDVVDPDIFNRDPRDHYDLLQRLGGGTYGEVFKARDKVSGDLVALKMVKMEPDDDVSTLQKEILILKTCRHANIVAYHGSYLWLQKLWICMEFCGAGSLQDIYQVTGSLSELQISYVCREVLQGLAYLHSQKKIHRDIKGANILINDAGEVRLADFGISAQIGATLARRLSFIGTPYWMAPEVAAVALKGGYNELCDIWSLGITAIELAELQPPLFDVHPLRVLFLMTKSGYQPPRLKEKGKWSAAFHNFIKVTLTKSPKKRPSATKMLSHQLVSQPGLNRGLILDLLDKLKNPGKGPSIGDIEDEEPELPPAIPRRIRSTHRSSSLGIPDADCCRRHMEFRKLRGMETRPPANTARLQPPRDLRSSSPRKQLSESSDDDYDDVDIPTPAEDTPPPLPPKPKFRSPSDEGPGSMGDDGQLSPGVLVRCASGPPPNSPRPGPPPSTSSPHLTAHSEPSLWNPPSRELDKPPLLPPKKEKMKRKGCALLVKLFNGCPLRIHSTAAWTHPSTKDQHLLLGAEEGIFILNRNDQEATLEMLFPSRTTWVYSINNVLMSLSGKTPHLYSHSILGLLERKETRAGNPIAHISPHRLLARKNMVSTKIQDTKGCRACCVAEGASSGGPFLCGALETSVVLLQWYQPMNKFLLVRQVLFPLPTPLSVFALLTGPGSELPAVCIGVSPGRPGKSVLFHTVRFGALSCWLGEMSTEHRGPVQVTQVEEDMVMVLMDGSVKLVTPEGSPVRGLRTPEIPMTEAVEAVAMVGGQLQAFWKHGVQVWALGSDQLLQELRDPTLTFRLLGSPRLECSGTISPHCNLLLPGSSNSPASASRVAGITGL

SMILES | Ki [nM]
Cc1ccncc1-c1cc2cc(NC(=O)NC(C)CO)ncc2c(N)n1 (stereo not drawn) [Compound 117, l-(8-amino-6-(4-methylpyridin-3-yl)-2,7-naphthyridin-3-yl)-3-(1-hydroxypropan-2-yl)urea] | 8.47
Cc1ccncc1-c1cc2cc(NC(=O)[C@@H]3C[C@]34CCN(S(C)(=O)=O)C4)ncc2c(N)n1 (racemic) [Compound 148, (±)-trans-N-(8-amino-6-(4-methylpyridin-3-yl)-2,7-naphthyridin-3-yl)-5-(methylsulfonyl)-5-azaspiro[2.4]heptane-1-carboxamide] | 2.8
N#Cc1ccccc1-c1cc2cc(NC(=O)[C@H]3C[C@@H]3C#N)ncc2c(N)n1 (racemic) [Compound 224, (+/−)-trans-N-(8-amino-6-(2-cyanophenyl)-2,7-naphthyridin-3-yl)-2-cyanocyclopropanecarboxamide] | 15.2
Cc1c(-c2cc3cc(NC(=O)[C@@H]4C[C@@H]4F)ncc3c(N)n2)cnc2nc[nH]c12 (racemic) [Compound 52, (±)-cis-N-(8-amino-6-(7-methyl-1H-imidazo [4,5-b]pyridin-6-yl)-2,7-naphthyridin-3-yl)-2-fluorocyclopropanecarboxamide] | 2.98
CC(C)c1[nH]ncc1-c1cc2cc(NC(=O)[C@@H]3C[C@H]3C#N)ncc2c(N)n1 (racemic) [Compound 114, (±)-trans-N-(8-amino-6-(5-isopropyl-1H-pyrazol-4-yl)-2,7-naphthyridin-3-yl)-2-cyanocyclopropane-1-carboxamide] | 2.24
Cc1ccc(O)cc1-c1cc2cc(NC(=O)[C@H]3C[C@@H]3c3cnn(C)c3)ncc2c(N)n1 (racemic) [Compound 268, (+/−)-trans-N-[8-amino-6-(5-hydroxy-2-methylphenyl)-2,7-naphthyridin-3-yl]-2-(1-methyl-1H-pyrazol-4-yl)cyclopropane-1-carboxamide] | 0.147
COCCN1CC[C@]2(C[C@H]2C(=O)Nc2cc3cc(-c4cnccc4C)nc(N)c3cn2)C1 (racemic) [Compound 127, (±)-trans-N-(8-amino-6-(4-methylpyridin-3-yl)-2,7-naphthyridin-3-yl)-5-(2-methoxyethyl)-5-azaspiro[2.4]heptane-1-carboxamide] | 5.3
Cc1ccncc1-c1nc(N)c2cnc(NC(=O)C3CC3)cc2c1C1=CC(O)CC1 (racemic) [Compound 204, N-(8-amino-5-(3-hydroxycyclopent-1-enyl)-6-(4-methylpyridin-3-yl)-2,7-naphthyridin-3-yl)cyclopropanecarboxamide] | 0.99
Cc1ccncc1-c1cc2cc(Nc3cc(C(C)O)n(C)n3)ncc2c(N)n1 (racemic) [Compound 221, (+/−)-1-(3-(8-amino-6-(4-methylpyridin-3-yl)-2,7-naphthyridin-3-ylamino)-1-methyl-1H-pyrazol-5-yl)ethanol] | 0.026
Cc1ccncc1-c1cc2cc(NC(=O)[C@@H]3C[C@H]3C#N)ncc2c(N)n1 (racemic) [Compound 43, trans-N-(8-amino-6-(4-methylpyridin-3-yl)-2,7-naphthyridin-3-yl)-2-cyanocyclopropanecarboxamide] | 2.05
Cc1ccncc1-c1cc2cc(NC(=O)[C@H]3C[C@@H]3C(=O)N(C)C)ncc2c(N)n1 (racemic) [Compound 138, (±)-trans-N1-(8-amino-6-(4-methylpyridin-3-yl)-2,7-naphthyridin-3-yl)-N2,N2-dimethylcyclopropane-1,2-dicarboxamide] | 32
CCc1ccncc1-c1cc2cc(NC(=O)[C@H]3C[C@@H]3COC)ncc2c(N)n1 (racemic) [Compound 53, (±)-trans-N-(8-amino-6-(4-ethylpyridin-3-yl)-2,7-naphthyridin-3-yl)-2-(methoxymethyl) cyclopropane carboxamide] | 0.736
Nc1nc(N2CCCC2CCO)cc2cc(NC(=O)[C@@H]3C[C@@H]3F)ncc12 (mixture of isomers) [Compound 54, (±)-cis-N-(8-amino-6-(2-(2-hydroxyethyl)pyrrolidin-1-yl)-2,7-naphthyridin-3-yl)-2-fluorocyclopropanecarboxamide] | 48.9
CCc1ccncc1-c1cc2cc(NC(=O)NC(C)C(N)=O)ncc2c(N)n1 (racemic) [Compound 34, 2-[[8-amino-6-(4-ethyl-3-pyridyl)-2,7-naphthyridin-3-yl]carbamoylamino]propanamide] | 34
N#C[C@@H]1C[C@@H]1C(=O)Nc1cc2cc(-c3cncc4[nH]ccc34)nc(N)c2cn1 (racemic) [Compound 21, (±)-cis-N-(8-amino-6-(1H-pyrrolo[2,3-c]pyridin-4-yl)-2,7-naphthyridin-3-yl)-2-cyanocyclopropanecarboxamide] | 2.76
CC(=O)N1CCC(n2cc(Nc3cc4cc(-c5cnccc5C)nc(N)c4cn3)cn2)C1 (racemic) [Compound 218, (+/−)-1-(3-(4-(8-amino-6-(4-methylpyridin-3-yl)-2,7-naphthyridin-3-ylamino)-1H-pyrazol-1-yl)pyrrolidin-1-yl)ethanone] | 0.02
Cc1ccncc1-c1cc2cc(Nc3cnn(C(C)CO)c3)ncc2c(N)n1 (racemic) [Compound 213, (+/−)-2-(4-(8-amino-6-(4-methylpyridin-3-yl)-2,7-naphthyridin-3-ylamino)-1H-pyrazol-1-yl)propan-1-ol] | 0.957
Cc1cc(N2CCC(N)C2)ncc1-c1cc2cc(NC(=O)C3CC3F)ncc2c(N)n1 (racemic) [Compound 179, (±)-cis-N-[8-amino-6-[6-[(3S)-3-aminopyrrolidin-1-yl]-4-methyl-3-pyridyl]-2,7-naphthyridin-3-yl]-2-fluoro-cyclopropanecarboxamide] | 2.9
Cc1cc(-c2ccc[nH]c2=O)ncc1-c1cc2cc(NC(=O)[C@H]3C[C@H]3F)ncc2c(N)n1 (racemic) [Compound 167, (±)-cis-N-(8-amino-6-(4-methyl-6-(2-oxo-1,2-dihydropyridin-3-yl)pyridin-3-yl)-2,7-naphthyridin-3-yl)-2-fluorocyclopropanecarboxamide] | 9.4
Cc1ccncc1-c1cc2cc(NC(=O)[C@@H]3C[C@@H]3C(=O)N(C)C)ncc2c(N)n1 (racemic) [Compound 136, (±)-cis-N1-(8-amino-6-(4-methylpyridin-3-yl)-2,7-naphthyridin-3-yl)-N2,N2-dimethylcyclopropane-1,2-dicarboxamide] | 130
COc1cc(-c2cc3cc(NC(=O)[C@@H]4C[C@@H]4F)ncc3c(N)n2)c(C)cn1 (racemic) [Compound 55, cis-N-(8-amino-6-(2-methoxy-5-methylpyridin-4-yl)-2,7-naphthyridin-3-yl)-2-fluorocyclopropanecarboxamide] | 6.4

Same assay, conditions: Table B1-2, read-out: HPK1 Ki, L = Lanth

SMILES | Ki [nM]
Cc1cccc(CC#N)c1-c1cc2cc(NC(=O)[C@H]3C[C@@H]3c3cnn(C)c3)ncc2c(N)n1 (racemic) [Compound 382, (+/−)-trans-N-(8-amino-6-(2-(cyanomethyl)-6-methylphenyl)-2,7-naphthyridin-3-yl)-2-(1-methyl-1H-pyrazol-4-yl)cyclopropane-1-carboxamide] | 14
Cc1ccnc(Cc2ccccc2)c1-c1cc2cc(NC(=O)[C@@H]3C[C@H]3c3cnn(C)c3)ncc2c(N)n1 (single isomer, unassigned) [Compound 397] | 0.25
Cc1ccc2c(c1-c1cc3cc(NC(=O)[C@H]4C[C@@H]4CC#N)ncc3c(N)n1)CC[C@@]2(C)O (single isomer, unassigned) [Compound 353] | 29
